Results published in patent US6465526B1, “Natural mixture composed of higher primary aliphatic alcohols obtained from bee wax for the treatment of gastric and duodenal ulcers that also present antiinflamatory activity” (Laboratories Dalmer SA, priority 1994, dated 2002).
Marks after values point to notes of the source that are not given here.

Columns and labels:
Format in all cases: in vivo, Sprague Dawley rats
[1] = test system: gastric ulcer induced by alcohol (60%) and indometacine (10 mg/kg); test: gastric ulcer induced by alcohol (60%) and indometacine (10 mg/kg)
Description: The objective of the present work is to determine if the protective effect of […]. against ulcer is dependent of prostaglandins or not. Male Sprague Dawley rats, weighting 150 to 200 g, were adapted to laboratory conditions for 7 days with water and food ad libitum, up to 48 h previous to the experiment, where food is suppressed. The animals were randomly distributed in 4 experimental groups. […]. was administered intraperitoneally in a 2% Tween 20/water suspension, cimetidine was dissolved in hot water and indomethacine in 5% sodium bicarbonate. […] […] after the animals were injected by i.p. route indomethacine was administered at 10 mg/kg by subcutaneous route. Half an hour later, was administered 60% alcohol and, an hour later, the animals were sacrificed. The stomachs were extracted, opened by the bigger curvature and measured the size of the ulcer using a 3× enlargement. Results were expressed in […]. In all cases, the comparison between the treated groups and the control one was realized using the non parametric U de Mann Whitney test.

cotton granule = test: model of cotton granule; details: 3 mg/kg orally, 6 days
Description: In order to corroborate the antiinflamatory effect of the […]. are used the pleuresy induced by carragenine and the granule by cotton models, those ones that constitute established models for the evaluation of antiinflamatory drugs. Granule by cotton: Male Sprague Dawley rats, weighing 200 to 250 g, were adapted to laboratory conditions in the same way as the last experiment. […]. was administered orally in a 2% Tween 20/water suspension, while administered orally in a 5% sodium bicarbonate. […] Rats were randomly distributed in 5 experimental groups: 1) control (vehicle); 2, 3, and 4) […]. at 25, 50 and 100 mg/kg respectively and 5) indomethacine at 3 mg/kg. Rats were, previously, anaesthetized with ether, doing an incision in the dorsal region. The […] cotton pellet of 50 mg was sub-cutaneously and applied with a local […] finally the injured is closed. […] The percent of inhibition was […] taking as reference the weight of the granule formed in the control group.

[2] = test system: pleuresy induced by carragenine; test: pleuresy induced by carragenine; details: for Exudate volume: 1 h before carragenine, 5 h
Description: Pleuresy by carragenine: Male Sprague Dawley rats were used (200-250 g) and adapted to laboratory conditions for 15 days with water and food ad libitum and were deprived of food 12 h previous to the experiment. M.H.A.A.B.W. was administered in a 10 mg/mL acacia gum/water suspension, as well as triacontanol, while indomethacine was dissolved in 5% sodium bicarbonate.
All the treatments were administered using gastric gavage one hour previous to the injection of carragenine. Rats were randomly distributed in the following experimental groups: 1) control (vehicle); 2, 3 and 4) M.H.A.A.B.W. at 25, 50 and 100 mg/kg respectively; 5) triacontanol at 50 mg/kg and 6) indomethacine at 10 mg/kg.
For the induction of the edema, rats were anesthesized with ether and 0.3 mL of carragenine in 1% of saline solution were injected in the pleural cavity. Five hours later, the animals were sacrificed and the exudate were colected, determining its volume. The percent of inhibition of the edema is calculated using the following formula:
Inhibition (%)=1−(VT)/(VC)×100
VT=volume of the edema of treated animals
VC=volume of the edema of control animals

acid gastric secretion = test: gastric acidity in the model of pilorous ligatured; details: 4 h after pilorous ligature
Description: The results obtained in last examples sugest an action over ulcer induced by acid compounds dependent or independent. With the objective of discard the inhibitory effect over the inhibition of the acid gastric secretion was determined the action of […]. over this acid gastric secretion in the pilorous ligature model. Female Sprague Dawley rats, weighing 150 to 200 g were adapted to laboratory conditions for 15 days with water and food ad libitum. The animals were randomly distributed in different experimental groups and food was deprived 48 h previous to the ligature. […]. was administered intraperitoneally in a 2% Tween 20/water suspension. Cimetidine was dissolved in hot water and administered by the same route as […]. […] Rats were anaesthetized with ether and an incision, in the abdominal region was done, stomachs were extracted and pilorous were ligatured with thread. […], after that, the compound was administered by i.p. route and 3 mL of saline solution were injected by subcutaneous route. Four h later, the animals were sacrificed, intact stomachs were extracted, tweezed by the esophagus. The gastric content was centrifuged at 3000 min^-1 for 10 min and, later on, the volume was measured. The acidity of the gastric juice was measured using 0.1 mol/L NaOH and phenolphtalein as indicator. The comparison between the treated groups and the control one was realized using the non parametric U de Mann Whitney test.

[3] = 25 mg/kg i.p., indomethacine 10 mg/kg s.c. + 60% alcohol

In the case of COc1ccc2c(c1)c(CC(=O)O)c(C)n2C(=O)c1ccc(Cl)cc1 [Indometacine, indomethacine], the Ulcer ([1]; indometacine alone (10 mg/kg s.c.), no alcohol) is reported as 0 mm, the Inhibition (cotton granule) is reported as 69.3% and the Weight of granule (cotton granule) is reported as 79 + 0.02 ** mg. For the same compound, the Inhibition ([2]; 10 mg/kg oral) was 59.6% and the Exudate volume ([2]; 10 mg/kg oral) was 0.50 ± 0.15 mL.

In the case of CN/C(=N/CCSCc1nc[nH]c1C)NC#N [Cimetidine, cimetidine], the Inhibition [1, 3] is reported as 71.2%, the Ulcer [1, 3] is reported as 14.6 +/− 5.64* mm and the Acidity (acid gastric secretion; 25 mg/kg i.p.) is reported as 0,080 +/− 0,009* meq H^+/mL. The Gastric juice volume (acid gastric secretion; 25 mg/kg i.p.) was 5,87 +/− 0,63* mL, the Acidity (acid gastric secretion; 50 mg/kg i.p.) was 0,083 +/− 0,006** meq H^+/mL and the Gastric juice volume (acid gastric secretion; 50 mg/kg i.p.) was 5,83 +/− 0,38** mL.

With CCCCCCCCCCCCCCCCCCCCCCCCCCCCCCO [Triacontanol, 1-triacontanol] the Inhibition ([2]; 100 mg/kg oral (maximum dose assayed)) was 27.4% and the Exudate volume ([2]; 100 mg/kg oral) was 0.96 ± 0.30 mL.
